Results taken from patent publication US20160303137A1, “DUAL PI3K AND WNT PATHWAY INHIBITION AS A TREATMENT FOR CANCER” (Indiana University Research and Technology Corporation, priority 2015, published 2016).
Where two headings read alike, the source gives them in different places.

Tests used:
[1] = system: Wnt pathway genes incl. Porcupine (PORCN); assay: RNA-seq of MDA-MB-231 before and after Buparlisib treatment; assay type: cell-based, human; settings: MDA-MB-231, RNA-seq after vs before treatment
Method: RNA-sequencing for the Buparlisib treated MDA-MB-231 cell line experiment was performed as follows. To enrich for the non-ribosomal RNA transcriptome, RNA samples were first depleted of ribosomal RNA using the Low Input Ribominus Kit (Life Technologies). ERCC spike-in controls (Pool 1) were introduced for all samples (Life Technologies). RNA libraries were constructed using the Ion Total RNA-Seq Kit for AB Library Builder System (Life Technologies) per manufacturer's instructions. Libraries were barcoded using the IonXpress RNA-Seq Barcode 1-16 Kit (Life Technologies), and libraries were quantified using the Agilent TapeStation 2200 along with the DNA D1K Kit. Libraries were diluted to a concentration of 11 picomolar prior to templating and emulsion PCR using the Ion Template OT2 200 v2 kit along with Ion OneTouch 2 instrument (Life Technologies). Templates were quantified using the IonSphere Quality Control Kit (Life Technologies). Samples were sequenced on an Ion Proton Next-Generation Sequencer using the Ion Proton PI chip and the Ion PI Sequencing 200 v2 kit (Life Technologies). Samples were sequenced using 2 RNA-seq libraries/samples per chip to an average of 30-40 million reads per sample. Reads were mapped to the human genome (hg19) using the STAR algorithm (Dobin et al. Bioinformatics 29, 15-21 (2013)). Aligned BAM files were then imported into Partek Genomics Suite. […]

[2] = system: phosphorylated-AKT (p-AKT Ser 473); assay: Western blot of phospho-AKT in TNBC cell lines; assay type: cell-based; settings: MDA-MB-231, HCC70, HCC1143; 1 μM or 10 μM; 72 hours
Method: (§1) For Western Blot analysis, target modulation was assessed using qPCR for Axin2 (a marker of WNT974), and western blot for Porcupine and Phospho-Akt […] (a marker of Buparlisib activity). qPCR was performed using Taqman assays (Life Technologies). For western blotting, protein was isolated using RIPA buffer and quantified with BCA assay (Thermo Fisher). Protein was run on Bis-Tris gels (Life Technologies) and transferred to PVDF. Primary pAKT-[…] antibody (Cell Signaling Technology, Beverly, Mass.), β-actin (Cell Signaling Technology), and PORCN (Abcam, Cambridge, England) were incubated overnight with subsequent 1 hour incubation with HRP-conjugate secondary antibody. Staining was performed using a chemiluminescent substrate (ThermoFisher). Imaging was performed using an LAS-4000 Luminescent Image Analyzer (Fujifilm, Tokyo, Japan). Three TNBC cell lines: MDA-MB-231, HCC70, and HCC1143 were treated with either 0, 1 μM or 10 μM Buparlisib. After 72 hours, protein was isolated and PORCN and pAKT expression was observed.

Porcupine (PORCN) = assay: Western blot of Porcupine in TNBC cell lines; assay type: cell-based; settings: MDA-MB-231, HCC70, HCC1143; 1 μM or 10 μM; 72 hours
Method: as §1

[3] = In vivo single-dose PK, plasma HPLC-MS/MS; set-up: species or system NSG mice; settings: for AUC(0-inf) / Cmax / Tmax / half-life / Vd/F: NOD-scid IL2Rgamma-null (NSG), mouse, po; for Vd/F: read-out: Vdss/F; for Cl/F: single dose po
Method: For pharmacokinetic studies, NOD-scid IL2Rgamma-null (NSG) mice were obtained from the In Vivo Therapeutics (IVT) Core at the Indiana University School of Medicine and given a single dose of Buparlisib, WNT974, or the combination at pre-established concentrations of 30 mg/kg and 3 mg/kg respectively. This experiment employed 45 NSG mice (n=15 for each group). Plasma was drawn from 3 mice from each group at 0.5, 1, 2, 6, and 24 hours post dosage. Buparlisib and WNT974 were quantified in the plasma using high-performance liquid chromatography-mass spectrometry (HPLC-MS/MS). Pharmacokinetic (PK) parameters for Buparlisib and WNT974 including area under the curve (AUC), area under the moment curve (AUMC), and half-life (t½) were estimated using non-compartmental methods with Excel and WinNonlin v 2.0 (Certara, Princeton, N.J.). The maximum plasma concentration (Cmax) and time of Cmax (tmax) was calculated from the data. The systemic clearance (Cl/F, where F=bioavailability) of each drug was calculated from the dose and AUC0-∝The apparent volume of distribution (Vdss/F) was estimated from the Cl/F and mean residence time. The single-agent pharmacokinetic parameters were compared to the drug combination parameters to determine whether a drug-drug interaction exists.

TMD-231 TNBC cells = assay: Pharmacodynamic study, TMD-231 xenograft tumor volume; assay type: in vivo, NSG mice; settings: single agent, 7 days once-a-day; Buparlisib 30 mg/kg, WNT974 3 mg/kg
Method: For the pharmacodynamic studies, NSG mice were implanted with TMD-231 TNBC cells into the mammary fat pad of 24 NSG mice (6 mice per group: Vehicle, Buparlisib, WNT974, Buparlisib+WNT974). The TMD-231 cell line is a variant of the MDA-MB-231 cell line that metastasizes to the lung. Tumors were allowed to grow for 29 days to an average size of approximately 350 mm^3 prior to dosing. To validate compound-mediated modulation of the PI3K/mTOR and Wnt signaling pathways, mice were dosed once-a-day with vehicle, Buparlisib (30 mg/kg), WNT974 (3 mg/kg), or the combination for 7 days, with intermittent tumor measurements.

[4] = Quantification of drug in resected tumors (PD study); assay type: in vivo, NSG mice; settings: tumors resected 1 hour and 7 hours after last dose, day 7; HPLC-MS/MS
Phospho-AKT = assay: pAKT western blot on TMD-231 tumors (PD study); assay type: in vivo, NSG mice; settings: 7 days once-a-day; Buparlisib 30 mg/kg, WNT974 3 mg/kg
Method: as §1, with “Japan).” for “Japan). Three TNBC cell lines: MDA-MB-231, HCC70, and HCC1143 were treated with either 0, 1 μM or 10 μM Buparlisib. After 72 hours, protein was isolated and PORCN and pAKT expression was observed.”

AXIN2 RNA = assay: Axin2 RNA qPCR on TMD-231 tumors (PD study); assay type: in vivo, NSG mice; settings: 7 days once-a-day; Buparlisib 30 mg/kg, WNT974 3 mg/kg
Method: as §1, with “Japan).” for “Japan). Three TNBC cell lines: MDA-MB-231, HCC70, and HCC1143 were treated with either 0, 1 μM or 10 μM Buparlisib. After 72 hours, protein was isolated and PORCN and pAKT expression was observed.”

TMD-231 lung metastases = assay: Lung metastases quantification (Ki67), TMD-231 model; assay type: in vivo, NSG mice; settings: Ki67 positive pixels in lung sections; Buparlisib 30 mg/kg, WNT974 3 mg/kg
Method: For the pharmacodynamic studies, NSG mice were implanted with TMD-231 TNBC cells into the mammary fat pad of 24 NSG mice (6 mice per group: Vehicle, Buparlisib, WNT974, Buparlisib+WNT974). The TMD-231 cell line is a variant of the MDA-MB-231 cell line that metastasizes to the lung. Tumors were allowed to grow for 29 days to an average size of approximately 350 mm^3 prior to dosing. To validate compound-mediated modulation of the PI3K/mTOR and Wnt signaling pathways, mice were dosed once-a-day with vehicle, Buparlisib (30 mg/kg), WNT974 (3 mg/kg), or the combination for 7 days, with intermittent tumor measurements. […] To quantify lung metastases, lungs were extracted, fixed in 10% formalin, and processed in paraffin. Five-micrometer sections were H&E stained, deparaffinized, blocked, and stained using primary anti-human Ki67 antibody (DAKO, Carpinteria, Calif.). The Aperio whole slide digital imaging system was used for imaging (Leica, Wetzlar, Germany). Using the Aperio ScanScope CS, 20× images were taken at scan times ranging from 1.5 to 2.25 minutes. The total nuclear labeling index (Ki67) was generated using the Aperio ImageScope standard positive pixel algorithm. The Image Analysis software was used to calculate the percent of positive pixels (brown staining) in one large cross section from each lung.

[5] = system: TNBC patient derived xenograft (PDX) (ID: BR0901); assay: TNBC PDX study, survival; assay type: in vivo, NSG mice; settings: n=10 per group, once-a-day max 28 days; Buparlisib 30 mg/kg, WNT974 3 mg/kg
Method: NSG mice were trochar implanted in the right hind flank with a passage 1-4, 5 mm^3 TNBC patient derived xenograft (PDX) (ID: BR0901) at The Jackson Laboratory (The Jackson Laboratory, Bar Harbor, Maine). […] 40 TNBC PDX implanted mice were used (10 mice per group: Vehicle, Buparlisib (30 mg/kg), WNT974 (3 mg/kg), and Buparlisib+WNT974). Tumors were grown to an average of 70-150 mm^3 and mice averaged 22.5 grams body weight. Mice were dosed once-a-day for a maximum of 28 days. Tumor measurements were made two times a week. Mice whose tumors reached a size of 1500 mm^3 were euthanized per IACUC protocol.

[6] = known; cited from earlier work
Porcupine = target: T1, Porcupine (Homo sapiens, UniProt Q9H237); settings: recently published data; cited from earlier work
T1 sequence (Q9H237 1-461): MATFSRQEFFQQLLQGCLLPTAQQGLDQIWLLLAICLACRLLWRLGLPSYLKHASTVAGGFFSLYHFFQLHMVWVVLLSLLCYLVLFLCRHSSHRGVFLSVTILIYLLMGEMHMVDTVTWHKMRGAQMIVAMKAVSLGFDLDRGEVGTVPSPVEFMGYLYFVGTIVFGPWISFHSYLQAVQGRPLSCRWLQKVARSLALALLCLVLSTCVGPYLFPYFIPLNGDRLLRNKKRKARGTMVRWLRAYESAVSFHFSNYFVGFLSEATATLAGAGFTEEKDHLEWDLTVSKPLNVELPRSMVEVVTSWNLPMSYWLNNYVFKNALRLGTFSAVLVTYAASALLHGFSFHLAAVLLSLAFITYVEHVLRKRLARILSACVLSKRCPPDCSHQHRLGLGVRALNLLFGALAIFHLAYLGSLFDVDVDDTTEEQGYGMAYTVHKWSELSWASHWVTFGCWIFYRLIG

tumor growth = settings: recently published data; cited from earlier work
[7] = drug given alone, Buparlisib 30 mg/Kg, WNT974 3 mg/Kg
[8] = measured drug given in combination with the other, Buparlisib 30 mg/Kg + WNT974 3 mg/Kg

SMILES | AUC(0-inf) [3, 7] | Cmax [3, 7] | Tmax [3, 7] | half-life [3, 7] | Vd/F [3, 7] | AUC(0-inf) [3, 8] | Cmax [3, 8] | Tmax [3, 8] | half-life [3, 8] | Vd/F [3, 8] | Cl/F [3, 7] | Cl/F [3, 8] | tumor volume change (in words) (TMD-231 TNBC cells) | drug concentrations in tumor tissue [4] | Inhibition of Phospho-AKT in tumors (Phospho-AKT) | Axin2 RNA expression in tumors (AXIN2 RNA) | lung metastases compared with the control group (TMD-231 lung metastases) | mice survived to the end of the study [5] | toxicity / most common side effect in humans [6] | other results
Nc1cc(C(F)(F)F)c(-c2cc(N3CCOCC3)nc(N3CCOCC3)n2)cn1 [Buparlisib, 5-(2,6-di-4-morpholinyl-4-pyrimidinyl)-4-(trifluoromethyl)-2-pyridinamine] | 16500 ng·h/mL | 2300 ng/mL | 1 h | 3 h | 0.15 L | 15500 ng·h/mL | 2850 ng/mL | 2 h | 2.8 h | 0.16 L | 0.034 L/h | 0.035 L/h | grew slightly | reaching the tumor | observed | no significant change | small but non-significant decreases | 40% | depression, anxiety, pneumonitis, and liver toxicity | expression of Wnt pathway genes [1]: significant increase; Porcupine (PORCN) gene over-expression after treatment ([1]; preliminary data): approximately 8 fold; phospho-AKT [2]: potent inhibition; Porcupine protein expression (Porcupine (PORCN)): increase
Cc1cc(-c2ncc(CC(=O)Nc3ccc(-c4cnccn4)cn3)cc2C)ccn1 [WNT974, 2-[5-methyl-6-(2-methylpyridin-4-yl)pyridin-3-yl]-N-(5-pyrazin-2-ylpyridin-2-yl)acetamide] | 636 ng·h/mL | 165 ng/mL | 1 h | 2.1 h | 0.24 L | 621 ng·h/mL | 143 ng/mL | 1 h | 3 h | 0.4 L | 0.081 L/h | 0.087 L/h | grew slightly | reaching the tumor | not | decrease | small but non-significant decreases | 0% | dysgeusia | inhibition of its target (Porcupine): potent inhibition; inhibition of tumor growth in vivo (tumor growth): significant inhibition
